Data taken from ChEMBL document CHEMBL3112479, “Synthesis and evaluation of the antimicrobial activities of 3-((5-phenyl-1,3,4-oxadiazol-2-yl)methyl)-2-thioxothiazolidin-4-one derivatives” (2014).
Values after ≈ are worked out from the molar mass of the structure shown.

Key:
Candida albicans = test: Antimicrobial activity against Candida albicans 7535 after 20 hrs by two-fold serial dilution technique; format: functional; conditions: Candida albicans, 7535, 20 h
Escherichia coli [1] = test: Antimicrobial activity against Escherichia coli KCTC 1924 after 20 hrs by two-fold serial dilution technique; format: functional; conditions: KCTC 1924, 20 h
Salmonella typhimurium [2] = test: Antimicrobial activity against Salmonella typhimurium 2421 after 20 hrs by two-fold serial dilution technique; format: functional, Salmonella enterica subsp. enterica serovar Typhimurium; conditions: Salmonella enterica, 2421, 20 h
Staphylococcus aureus [3] = test: Antimicrobial activity against quinolone-resistant Staphylococcus aureus clinical isolate 3505 after 20 hrs by two-fold serial dilution technique; format: functional; conditions: isolate 3505, 20 h
Pseudomonas aeruginosa [4] = test: Antimicrobial activity against Pseudomonas aeruginosa 2742 after 20 hrs by two-fold serial dilution technique; format: functional; conditions: Pseudomonas aeruginosa, 2742, 20 h
Salmonella typhimurium [5] = test: Antimicrobial activity against Salmonella typhimurium 1926 after 20 hrs by two-fold serial dilution technique; format: functional, Salmonella enterica subsp. enterica serovar Typhimurium; conditions: Salmonella enterica, 1926, 20 h
Pseudomonas aeruginosa [6] = test: Antimicrobial activity against Pseudomonas aeruginosa 2004 after 20 hrs by two-fold serial dilution technique; format: functional; conditions: Pseudomonas aeruginosa, 2004, 20 h
Streptococcus mutans = test: Antimicrobial activity against Streptococcus mutans 3065 after 20 hrs by two-fold serial dilution technique; format: functional; conditions: Streptococcus mutans, 3065, 20 h
Staphylococcus aureus [7] = test: Antimicrobial activity against Staphylococcus aureus RN4220 after 20 hrs by two-fold serial dilution technique; format: functional; conditions: RN4220, 20 h
Staphylococcus aureus [8] = test: Antimicrobial activity against Staphylococcus aureus 209 after 20 hrs by two-fold serial dilution technique; format: functional; conditions: Staphylococcus aureus, 209, 20 h
Escherichia coli [9] = test: Antimicrobial activity against Escherichia coli CCARM 1356 after 20 hrs by two-fold serial dilution technique; format: functional; conditions: CCARM 1356, 20 h
Staphylococcus aureus [10] = test: Antimicrobial activity against methicillin-resistant Staphylococcus aureus clinical isolate 3167 after 20 hrs by two-fold serial dilution technique; format: functional; conditions: isolate 3167, 20 h
Staphylococcus aureus [11] = test: Antimicrobial activity against quinolone-resistant Staphylococcus aureus clinical isolate 3519 after 20 hrs by two-fold serial dilution technique; format: functional; conditions: isolate 3519, 20 h
Staphylococcus aureus [12] = test: Antimicrobial activity against methicillin-resistant Staphylococcus aureus clinical isolate 3506 after 20 hrs by two-fold serial dilution technique; format: functional; conditions: isolate 3506, 20 h
Staphylococcus aureus [13] = test: Antimicrobial activity against Staphylococcus aureus 503 after 20 hrs by two-fold serial dilution technique; format: functional; conditions: Staphylococcus aureus, 503, 20 h

Row | Compound | MIC (Candida albicans) | MIC (Escherichia coli [1]) | MIC (Salmonella typhimurium [2]) | MIC (Staphylococcus aureus [3]) | MIC (Pseudomonas aeruginosa [4]) | MIC (Salmonella typhimurium [5]) | MIC (Pseudomonas aeruginosa [6]) | MIC (Streptococcus mutans) | MIC (Staphylococcus aureus [7]) | MIC (Staphylococcus aureus [8]) | MIC (Escherichia coli [9]) | MIC (Staphylococcus aureus [10]) | MIC (Staphylococcus aureus [11]) | MIC (Staphylococcus aureus [12]) | MIC (Staphylococcus aureus [13])
1 | O=C1CSC(=S)N1Cc1nnc(-c2ccccc2F)o1 | 64 µg/mL (≈ 207 µM) | 32 µg/mL (≈ 103 µM) | 64 µg/mL (≈ 207 µM) | 64 µg/mL (≈ 207 µM) | > 128 µg/mL | 64 µg/mL (≈ 207 µM) | > 128 µg/mL | 32 µg/mL (≈ 103 µM) | 64 µg/mL (≈ 207 µM) | 16 µg/mL (≈ 51.7 µM) | > 128 µg/mL | 64 µg/mL (≈ 207 µM) | 64 µg/mL (≈ 207 µM) | 64 µg/mL (≈ 207 µM) | 64 µg/mL (≈ 207 µM)
2 | O=C1CSC(=S)N1Cc1nnc(-c2ccccc2)o1 | 64 µg/mL (≈ 220 µM) | 64 µg/mL (≈ 220 µM) | 128 µg/mL (≈ 439 µM) | 64 µg/mL (≈ 220 µM) | > 128 µg/mL | 64 µg/mL (≈ 220 µM) | > 128 µg/mL | 64 µg/mL (≈ 220 µM) | 64 µg/mL (≈ 220 µM) | 32 µg/mL (≈ 110 µM) | > 128 µg/mL | 64 µg/mL (≈ 220 µM) | 64 µg/mL (≈ 220 µM) | 64 µg/mL (≈ 220 µM) | 64 µg/mL (≈ 220 µM)
3 | Cc1cccc(-c2nnc(CN3C(=O)/C(=C/c4ccc(C(=O)O)cc4)SC3=S)o2)c1 | > 64 µg/mL | > 128 µg/mL | > 128 µg/mL | 32 µg/mL (≈ 73.1 µM) | > 128 µg/mL | > 128 µg/mL | > 128 µg/mL | 16 µg/mL (≈ 36.6 µM) | 16 µg/mL (≈ 36.6 µM) | 32 µg/mL (≈ 73.1 µM) | > 128 µg/mL | 32 µg/mL (≈ 73.1 µM) | 32 µg/mL (≈ 73.1 µM) | 32 µg/mL (≈ 73.1 µM) | 32 µg/mL (≈ 73.1 µM)
4 | O=C(O)c1ccc(/C=C2\SC(=S)N(Cc3nnc(-c4cccc(Cl)c4)o3)C2=O)cc1 | > 64 µg/mL | > 128 µg/mL | > 128 µg/mL | 16 µg/mL (≈ 34.9 µM) | > 128 µg/mL | > 128 µg/mL | > 128 µg/mL | 16 µg/mL (≈ 34.9 µM) | 8 µg/mL (≈ 17.5 µM) | 16 µg/mL (≈ 34.9 µM) | > 128 µg/mL | 8 µg/mL (≈ 17.5 µM) | 16 µg/mL (≈ 34.9 µM) | 32 µg/mL (≈ 69.9 µM) | 16 µg/mL (≈ 34.9 µM)
5 | O=C(O)c1ccc(/C=C2\SC(=S)N(Cc3nnc(-c4cccc(Br)c4)o3)C2=O)cc1 | > 64 µg/mL | > 128 µg/mL | > 128 µg/mL | 16 µg/mL (≈ 31.8 µM) | > 128 µg/mL | > 128 µg/mL | > 128 µg/mL | 16 µg/mL (≈ 31.8 µM) | 16 µg/mL (≈ 31.8 µM) | 16 µg/mL (≈ 31.8 µM) | > 128 µg/mL | 8 µg/mL (≈ 15.9 µM) | 16 µg/mL (≈ 31.8 µM) | 16 µg/mL (≈ 31.8 µM) | 16 µg/mL (≈ 31.8 µM)
6 | Cc1cccc(-c2nnc([C@H](Cc3ccccc3)N3C(=O)CSC3=S)o2)c1 | > 64 µg/mL | > 128 µg/mL | > 128 µg/mL | 8 µg/mL (≈ 20.2 µM) | > 128 µg/mL | > 128 µg/mL | > 128 µg/mL | 4 µg/mL (≈ 10.1 µM) | 8 µg/mL (≈ 20.2 µM) | > 64 µg/mL | > 128 µg/mL | 8 µg/mL (≈ 20.2 µM) | 8 µg/mL (≈ 20.2 µM) | 8 µg/mL (≈ 20.2 µM) | > 64 µg/mL
7 | O=C1CSC(=S)N1[C@@H](Cc1ccccc1)c1nnc(-c2cccc(Cl)c2)o1 | > 64 µg/mL | > 128 µg/mL | > 128 µg/mL | 8 µg/mL (≈ 19.2 µM) | > 128 µg/mL | > 128 µg/mL | > 128 µg/mL | 4 µg/mL (≈ 9.62 µM) | 8 µg/mL (≈ 19.2 µM) | > 64 µg/mL | > 128 µg/mL | 4 µg/mL (≈ 9.62 µM) | 8 µg/mL (≈ 19.2 µM) | 8 µg/mL (≈ 19.2 µM) | > 64 µg/mL
8 | O=C1CSC(=S)N1[C@@H](Cc1ccccc1)c1nnc(-c2cccc(Br)c2)o1 | > 64 µg/mL | > 128 µg/mL | > 128 µg/mL | 2 µg/mL (≈ 4.34 µM) | > 128 µg/mL | > 128 µg/mL | > 128 µg/mL | 2 µg/mL (≈ 4.34 µM) | 4 µg/mL (≈ 8.69 µM) | > 64 µg/mL | > 128 µg/mL | 2 µg/mL (≈ 4.34 µM) | 4 µg/mL (≈ 8.69 µM) | 4 µg/mL (≈ 8.69 µM) | > 64 µg/mL
9 | COc1c(N2C[C@@H]3CCCN[C@@H]3C2)c(F)cc2c(=O)c(C(=O)O)cn(C3CC3)c12 [MOXIFLOXACIN] | 0.5 µg/mL (≈ 1.25 µM) | – | 0.5 µg/mL (≈ 1.25 µM) | – | – | 1 µg/mL (≈ 2.49 µM) | 2 µg/mL (≈ 4.98 µM) | 0.25 µg/mL (≈ 0.623 µM) | 0.25 µg/mL (≈ 0.623 µM) | – | 128 µg/mL (≈ 319 µM) | – | – | – | 2 µg/mL (≈ 4.98 µM)
10 | CCn1cc(C(=O)O)c(=O)c2cc(F)c(N3CCNCC3)cc21 [NORFLOXACIN] | – | – | – | > 64 µg/mL | – | – | – | – | – | – | – | 8 µg/mL (≈ 25.1 µM) | > 64 µg/mL | 4 µg/mL (≈ 12.5 µM) | –
11 | Cc1onc(-c2ccccc2)c1C(=O)N[C@@H]1C(=O)N2[C@@H]1SC(C)(C)[C@@H]2C(=O)O [OXACILLIN] | – | – | – | 1 µg/mL (≈ 2.49 µM) | – | – | – | – | – | – | – | > 64 µg/mL | 1 µg/mL (≈ 2.49 µM) | > 64 µg/mL | –
